Row | Structure (SMILES) | melting point
1 | C(=C\c1cc(/C=C/c2c[nH]c3ccccc23)[nH]n1)/c1ccc(OCc2ccccn2)cc1 [Example 10, 3-[(1E)-2-(1H-indol-3-yl)ethenyl]-5-[(1E)-2-[4-(2-pyridylmethoxy)phenyl]ethenyl]-1H-pyrazole] | 196 to 199 °C
2 | COc1cc(/C=C/c2cc(/C=C/c3c[nH]c4ccccc34)[nH]n2)ccc1OCc1ccccn1 [Example 11, 3-[(1E)-2-(1H-indol-3-yl)ethenyl]-5-[(1E)-2-[3-methoxy-4-(2-pyridylmethoxy)phenyl]ethenyl]-1H-pyrazole] | 120 to 130 °C
3 | COc1ccc(/C=C/c2cc(/C=C/c3c[nH]c4ccccc34)[nH]n2)cc1OCc1ccccn1 [Example 12, 3-[(1E)-2-(1H-indol-3-yl)ethenyl]-5-[(1E)-2-[4-methoxy-3-(2-pyridylmethoxy)phenyl]ethenyl]-1H-pyrazole] | 232 to 243 °C
4 | C(=C\c1cc(/C=C/c2c[nH]c3ccccc23)[nH]n1)/c1cccc(OCc2ccccn2)c1 [Example 13, 3-[(1E)-2-(1H-indol-3-yl)ethenyl]-5-[(1E)-2-[3-(2-pyridylmethoxy)phenyl]ethenyl]-1H-pyrazole] | 198 to 201 °C
5 | C(=C\c1cc(/C=C/c2ccc3cc[nH]c3c2)[nH]n1)/c1ccc(OCc2ccccn2)cc1 [Example 16, 3-[(1E)-2-(1H-indol-6-yl)ethenyl]-5-[(1E)-2-[4-(2-pyridylmethoxy)phenyl]ethenyl]-1H-pyrazole] | 211 to 214 °C
6 | C(=C\c1cc(/C=C/c2ccc3cc[nH]c3c2)[nH]n1)/c1cccc(OCc2ccccn2)c1 [Example 19, 3-[(1E)-2-(1H-indol-6-yl)ethenyl]-5-[(1E)-2-[3-(2-pyridylmethoxy)phenyl]ethenyl]-1H-pyrazole] | 193 to 195 °C

Further lines, results first:

Row | melting point | Structure (SMILES)
7 | 95 to 102 °C | C(=C\c1cc(/C=C/c2ccc3[nH]ccc3c2)[nH]n1)/c1ccc(OCc2ccccn2)cc1 [Example 4, 3-[(1E)-2-(1H-indol-5-yl)ethenyl]-5-[(1E)-2-[4-(2-pyridylmethoxy)phenyl]ethenyl]-1H-pyrazole]
8 | 96 to 101 °C | COc1cc(/C=C/c2cc(/C=C/c3ccc4[nH]ccc4c3)[nH]n2)ccc1OCc1ccccn1 [Example 5, 3-[(1E)-2-(1H-indol-5-yl)ethenyl]-5-[(1E)-2-[3-methoxy-4-(2-pyridylmethoxy)phenyl]ethenyl]-1H-pyrazole]
9 | 109 to 118 °C | COc1ccc(/C=C/c2cc(/C=C/c3ccc4[nH]ccc4c3)[nH]n2)cc1OCc1ccccn1 [Example 6, 3-[(1E)-2-(1H-indol-5-yl)ethenyl]-5-[(1E)-2-[4-methoxy-3-(2-pyridylmethoxy)phenyl]ethenyl]-1H-pyrazole]
10 | 183 to 186 °C | C(=C\c1cc(/C=C/c2ccc3[nH]ccc3c2)[nH]n1)/c1cccc(OCc2ccccn2)c1 [Example 7, 3-[(1E)-2-(1H-indol-5-yl)ethenyl]-5-[(1E)-2-[3-(2-pyridylmethoxy)phenyl]ethenyl]-1H-pyrazole]
11 | 236 to 243 °C | COc1cc(/C=C/c2cc(/C=C/c3ccc4cc[nH]c4c3)[nH]n2)ccc1OCc1ccccn1 [Example 17, 3-[(1E)-2-(1H-indol-6-yl)ethenyl]-5-[(1E)-2-[3-methoxy-4-(2-pyridylmethoxy)phenyl]ethenyl]-1H-pyrazole]
12 | 110 to 117 °C | COc1ccc(/C=C/c2cc(/C=C/c3ccc4cc[nH]c4c3)[nH]n2)cc1OCc1ccccn1 [Example 18, 3-[(1E)-2-(1H-indol-6-yl)ethenyl]-5-[(1E)-2-[4-methoxy-3-(2-pyridylmethoxy)phenyl]ethenyl]-1H-pyrazole]
13 | 109 to 114 °C | COc1c(/C=C/c2cc(/C=C/c3ccc4cc[nH]c4c3)[nH]n2)cccc1OCc1ccccn1 [Example 22, 3-[(1E)-2-(1H-indol-6-yl)ethenyl]-5-[(1E)-2-[2-methoxy-3-(2-pyridylmethoxy)phenyl]ethenyl]-1H -pyrazole]

Source: US9399635B2, “Pyrazole derivative” (GREEN TECH CO., LTD., priority 2011, dated 2016)
